Results published in patent US20250134946A1 (GEL4MED, INC., priority 2021, published 2025).
Non-standard residues stand in square brackets, D forms with d. No end group written: not given here.

Legend:
[1] = cited from earlier work
[2] = Net peptide charge and isoelectric point (FIGS. 9-10); assay type: physicochemical; conditions: pH 7
From the text: The peptide may be purified. For example, the peptide may be lyophilized. […] Other peptides are within the scope of the disclosure.
Exemplary peptides having a charge of +5 to +9 include […](d)[…], […](d)[…], and […](d)[…]. In other embodiments, the purified peptide may be substantially neutral. […] Net charge may be selected by peptide design. Design of electrostatic charge in the peptide hydrogel may allow control of charge interaction with cell membrane and proteins.

decorin = experiment: ChaseABC release from peptide hydrogels, bioactivity on decorin (FIGS. 6B, 15); conditions: pilot data, days 3 and 5
From the text: The protein was not degraded.
In addition to release and retention rates, in analogous experiments the released and retained ChaseABC enzyme will also be assayed for bioactivity. Activity will be assessed through the efficacy of the sample to digest the small proteoglycan decorin as described previously.
Importantly, the protein was not degraded.

NCCCC[C@H](N)C(=O)O [lysine]
side chain pKa [1]: about 10.5

VEVSVSVEV(d)PPTEVSVEVEV (VEVSVSVEV[dP]PTEVSVEVEV)
net charge [2]: net negative charge

O=C(O)C(F)(F)F [trifluoroacetic acid]
pKa [1]: about 0

chondroitinase ABC [ChaseABC]
bioactivity of released enzyme on decorin substrate (decorin): release of bioactive enzyme from the gel was demonstrated
